Data set [1] addresses T1, human Cav3.2 channels (Homo sapiens, UniProt O95180).
T1 construct: expressed in transfected cells; host or cells: HEK293 cells (ATCC No. CRL-1573), plasmid pcDNA3.1(+)
Kind of data set: Intracellular calcium concentration measurement (Fluo-4 AM) in stable cells expressing human Cav3.2 channels, buffer A / buffer B. In kind it is cell-based. In short, it runs like this:
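HEK293 cells stably expressing human Cav3.2, Fluo-4 loaded, preincubated 15 min at room temperature with compound (0.1% DMSO final) in buffer A (K+ equilibrium −92 mV) or B (−110 mV). After ionophore, KCl (83.8 or 91.8 mM) stimulus; 10 s fluorescence rise (ex 485/em 510 nm) gave % inhibition and IC50.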
(In general: A change in cytosolic calcium serves as a functional read-out for many receptors and channels.)

For data set [2], the target named is T1, human Cav3.2 channels. Kind of data set: Electrophysiological evaluation, whole-cell patch-clamp with automatic patch-clamp system. Particulars: for inhibition at 0.3 µM: holding potential −80 mV, read-out: Cav3.2 channel current inhibition ratio at 0.3 μM of test compound (holding potential −80 mV). In kind it is cell-based. The method in brief: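 Stable human Cav3.2 cell line, automated whole-cell patch clamp at room temperature. Peak inward current on 100 msec steps to −20 mV every 10 sec; five concentrations applied cumulatively by perfusion. Inhibition scored at 0.3 μM compound from −80 mV holding, or 3 μM from −100 mV.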
On the technique in general: The patch-clamp technique gives a direct electrical read-out from membranes.

A further data set has as its target T2, CYP3A4 (Homo sapiens, UniProt P08684).
T2 construct: purchased Cypex, Ltd; host or cells: E. coli membranes (Bactosomes)
Kind of data set: Evaluation of CYP3A4 activity inhibitory action. The class given is in vitro ADME. To be noted: Human CYP3A4BR EasyCYP Bactosomes, 7-Benzyloxy-4-(trifluoromethyl)-coumarin. Here is the method: Evaluation of CYP3A4 Activity Inhibitory Action
To a 50 mM potassium phosphate buffer solution (pH 7.4), 5 nM Human CYP3A4BR EasyCYP Bactosomes (Cypex, Ltd.), 50 μM 7-Benzyloxy-4-(trifluoromethyl)-coumarin, cofactor mix (0.0081 mM β-NADP^+, 0.4 mM G-6-P, 0.4 mM MgCl2, and 0.2 U/mL G-6-P DH(Y)), and 0.01% Pluronic F-127 were added, and the mixture was incubated for 45 minutes at 37° C. The reaction was initiated by adding the cofactor mix. After the incubation, 0.5 M Tris base/acetonitrile (20:80) was added thereto as a reaction terminating liquid, and the resulting mixture was stirred. Subsequently, the fluorescence intensity (excitation: 405 nm, emission: 535 nm) was measured. The reaction was carried out in duplicate. The results are presented as the inhibition rate at 10 μM of the test compound.

In a further data set the test system is mouse PSNL model. Description: Mechanical allodynia in mouse PSNL model, peroral administration. The class given is in vivo. Particulars: perorally administered, 10 mg/kg and 30 mg/kg, compared to the vehicle group. Here is the method:
Mechanical Allodynia in Mouse PSNL Model
(§1) Production of a mouse PSNL model was carried out according to the method of Seltzer, et al. A mouse was subjected to inhalation anesthesia with isoflurane. The femoral region of the mouse was shaved and disinfected with isodine. The skin on the thighbone of the mouse was incised, the fascia underneath the skin was cut, and the biceps femoris muscle was divided at a site between the heads of muscles. The sciatic nerve underneath the incision was checked, and then the sciatic nerve was detached without damaging the nerve. The needle of an 8-0 silk suture with a needle was passed through the sciatic nerve so as to penetrate through the nerve, and thus a portion of about ½ to ⅓ of the sciatic nerve was ligated. The skin was sutured, and the mouse was kept for about 7 days. The surgery of a Sham control mouse was performed only for checking of the sciatic nerve, and the skin was sutured.
(§2) The measurement of pain threshold was carried out after the mouse was transferred into a cage for measurement and was waited until exploratory behavior had disappeared. […] The 50% threshold was calculated by an up-down method by referring to the method of Chaplan, et al. (Quantitative assessment of tactile allodynia in the […]. J Neurosci Methods, 53, 1994, 55-63). […]

In data set [3] the test system is mouse partial sciatic nerve ligation (PSNL) model. Description: Mechanical allodynia in a mouse partial sciatic nerve ligation (PSNL) model, intraperitoneal administration. To be noted: intraperitoneally administered, 20 to 30 mg/kg, compared to the vehicle group. The class given is in vivo. Here is the method: Mechanical Allodynia in a Mouse Partial Sciatic Nerve Ligation (PSNL) Model
as §1, §2

Where [4] appears, read: Tables 2 to 6, buffer A, equilibrium potential of potassium −92 mV, read-out: Inhibitory action of buffer A (inactivated state).
Setting [5] is: Table 1, buffer A, equilibrium potential of potassium −92 mV, read-out: Inhibitory action of buffer A (inactivated state).
Where [6] appears, read: Table 1, buffer B, equilibrium potential of potassium −110 mV, read-out: Inhibitory action of buffer B (resting state or closed state).

pIC50: −log10 of the molar value. Like-named read-outs stand apart in the source and are kept apart here.

T2 sequence (P08684 whole entry): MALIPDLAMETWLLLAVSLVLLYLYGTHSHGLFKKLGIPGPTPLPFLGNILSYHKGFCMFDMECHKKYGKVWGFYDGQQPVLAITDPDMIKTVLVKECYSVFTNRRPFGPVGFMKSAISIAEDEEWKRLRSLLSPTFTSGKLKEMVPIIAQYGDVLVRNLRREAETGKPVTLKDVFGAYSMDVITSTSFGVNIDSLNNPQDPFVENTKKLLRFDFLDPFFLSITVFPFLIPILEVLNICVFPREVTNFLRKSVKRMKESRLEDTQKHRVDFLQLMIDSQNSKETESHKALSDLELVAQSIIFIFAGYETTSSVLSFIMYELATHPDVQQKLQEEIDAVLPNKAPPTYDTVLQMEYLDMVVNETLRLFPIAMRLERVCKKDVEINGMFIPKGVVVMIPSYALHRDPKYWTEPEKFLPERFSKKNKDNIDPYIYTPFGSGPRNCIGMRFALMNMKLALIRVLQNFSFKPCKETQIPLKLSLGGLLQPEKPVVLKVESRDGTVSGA
T1 sequence (O95180 whole entry): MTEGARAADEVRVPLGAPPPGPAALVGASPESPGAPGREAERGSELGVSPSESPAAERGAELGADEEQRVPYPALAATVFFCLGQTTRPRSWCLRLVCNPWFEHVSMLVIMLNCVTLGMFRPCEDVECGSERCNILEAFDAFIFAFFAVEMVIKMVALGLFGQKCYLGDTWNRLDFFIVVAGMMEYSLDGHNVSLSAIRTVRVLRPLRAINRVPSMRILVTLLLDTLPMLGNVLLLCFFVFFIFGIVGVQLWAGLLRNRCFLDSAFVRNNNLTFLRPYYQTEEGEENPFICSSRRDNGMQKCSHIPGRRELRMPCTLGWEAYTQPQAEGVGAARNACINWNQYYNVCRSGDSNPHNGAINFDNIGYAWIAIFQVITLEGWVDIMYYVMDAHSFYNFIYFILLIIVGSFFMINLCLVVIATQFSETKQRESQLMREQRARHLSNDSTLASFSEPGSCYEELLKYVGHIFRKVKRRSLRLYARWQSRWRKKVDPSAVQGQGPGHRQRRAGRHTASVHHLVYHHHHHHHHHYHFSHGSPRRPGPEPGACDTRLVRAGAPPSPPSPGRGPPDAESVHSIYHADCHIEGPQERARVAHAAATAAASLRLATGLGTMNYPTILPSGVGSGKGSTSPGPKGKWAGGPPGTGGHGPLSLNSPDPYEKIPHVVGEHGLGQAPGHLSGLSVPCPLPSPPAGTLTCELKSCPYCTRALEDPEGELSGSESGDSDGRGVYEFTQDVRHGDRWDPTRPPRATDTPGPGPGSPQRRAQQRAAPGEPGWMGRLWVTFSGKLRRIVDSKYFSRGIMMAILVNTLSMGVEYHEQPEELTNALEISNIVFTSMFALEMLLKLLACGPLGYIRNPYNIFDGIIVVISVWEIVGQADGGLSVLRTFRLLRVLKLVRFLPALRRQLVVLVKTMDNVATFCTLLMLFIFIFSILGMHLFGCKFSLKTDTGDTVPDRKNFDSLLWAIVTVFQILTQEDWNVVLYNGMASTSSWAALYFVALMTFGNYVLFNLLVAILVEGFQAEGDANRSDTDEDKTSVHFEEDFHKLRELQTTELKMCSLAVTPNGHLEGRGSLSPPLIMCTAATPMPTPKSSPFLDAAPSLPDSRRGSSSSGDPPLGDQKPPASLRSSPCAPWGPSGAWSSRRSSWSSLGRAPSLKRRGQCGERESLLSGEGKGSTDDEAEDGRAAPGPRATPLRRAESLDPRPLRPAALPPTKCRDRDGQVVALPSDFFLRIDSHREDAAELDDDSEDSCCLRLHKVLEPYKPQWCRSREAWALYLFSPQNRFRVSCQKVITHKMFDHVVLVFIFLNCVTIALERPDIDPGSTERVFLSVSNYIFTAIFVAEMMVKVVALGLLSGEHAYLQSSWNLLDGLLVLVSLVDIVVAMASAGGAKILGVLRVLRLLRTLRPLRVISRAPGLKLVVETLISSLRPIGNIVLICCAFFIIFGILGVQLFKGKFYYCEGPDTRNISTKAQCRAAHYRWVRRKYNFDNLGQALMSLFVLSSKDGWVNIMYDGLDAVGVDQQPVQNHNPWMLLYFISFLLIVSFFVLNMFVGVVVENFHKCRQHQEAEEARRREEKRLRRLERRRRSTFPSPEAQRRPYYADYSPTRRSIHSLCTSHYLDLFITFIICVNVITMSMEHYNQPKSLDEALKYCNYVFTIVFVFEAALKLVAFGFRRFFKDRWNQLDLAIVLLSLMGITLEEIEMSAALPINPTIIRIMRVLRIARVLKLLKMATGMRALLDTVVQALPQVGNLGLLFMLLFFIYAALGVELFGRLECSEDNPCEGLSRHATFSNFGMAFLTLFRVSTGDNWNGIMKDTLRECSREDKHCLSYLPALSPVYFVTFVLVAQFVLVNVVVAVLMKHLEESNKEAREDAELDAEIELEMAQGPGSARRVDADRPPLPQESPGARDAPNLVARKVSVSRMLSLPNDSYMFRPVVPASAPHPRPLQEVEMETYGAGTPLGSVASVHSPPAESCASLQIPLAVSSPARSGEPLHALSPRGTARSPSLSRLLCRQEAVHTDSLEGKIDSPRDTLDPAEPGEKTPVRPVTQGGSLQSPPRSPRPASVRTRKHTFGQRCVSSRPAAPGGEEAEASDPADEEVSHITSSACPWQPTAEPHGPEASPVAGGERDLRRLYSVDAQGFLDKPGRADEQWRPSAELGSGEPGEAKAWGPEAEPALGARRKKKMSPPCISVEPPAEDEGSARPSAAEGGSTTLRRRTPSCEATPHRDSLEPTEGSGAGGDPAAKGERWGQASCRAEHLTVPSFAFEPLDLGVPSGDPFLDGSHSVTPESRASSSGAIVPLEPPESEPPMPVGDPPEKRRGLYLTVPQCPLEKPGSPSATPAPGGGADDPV

In the case of `C[C@@H](NC(=O)[C@H]1C[C@@H]1c1nc2ccccc2[nH]1)c1cc2cc(F)ccc2o1` [Example 65, (1S,2S)-2-(1H-benzo[d]imidazol-2-yl)-N—((R)-1-(5-fluorobenzofuran-2-yl)ethyl)cyclopropane-1-carboxamide], the pIC50 on human Cav3.2 channels [1] (setting [4]) was at least 7.00. In addition, at human Cav3.2 channels [2], the inhibition at 0.3 µM was 81% and the “Cav3.2 channel current inhibition ratio at 3 μM of test compound (holding potential −100 mV)” value (shortened to “Cav3.2 channel current inhibition ratio”) amounted to 49%. At CYP3A4, the “CYP3A4 activity inhibition ratio at 10 μM of test compound” value (shortened to “CYP3A4 activity inhibition ratio”) was determined as 4.2%. Further, the “mechanical allodynia (pain threshold, von Frey filament test)” value in the data set with mouse PSNL model was “suppressed mechanical allodynia statistically significantly”.
Consider `C[C@@H](NC(=O)[C@H]1C[C@@H]1c1nc2ccccc2[nH]1)c1cc2ccc(F)cc2o1` [Example 100, (1S,2S)-2-(1H-benzo[d]imidazol-2-yl)-N—((R)-1-(6-fluorobenzofuran-2-yl)ethyl)cyclopropane-1-carboxamide], for which the pIC50 at human Cav3.2 channels [1] (setting [4]) is at least 7.00. Besides, on human Cav3.2 channels [2], the inhibition at 0.3 µM is 90% and the “Cav3.2 channel current inhibition ratio” value turned out to be 52%. At CYP3A4, the “CYP3A4 activity inhibition ratio” value came out at 27.9%.
`C[C@@H](NC(=O)C1CC1c1nc2ccccc2[nH]1)c1ccc(OCC(F)(F)F)s1` (single isomer, unassigned) [Example 3A]: the pIC50 on human Cav3.2 channels [1] (setting [5]) is at least 7.00. At human Cav3.2 channels [1] (setting [6]), the pIC50 is below 5.00. Further, at human Cav3.2 channels [2], the inhibition at 0.3 µM came out at 60% and the “Cav3.2 channel current inhibition ratio” value turned out to be 13%. For the same molecule, the “CYP3A4 activity inhibition ratio” value at CYP3A4 is 12.7%. Further, in data set [3], the “mechanical allodynia (pain threshold, von Frey filament test)” value is recorded as “suppressed mechanical allodynia statistically significantly”.
For `C[C@@H](NC(=O)C1CC1c1nc2ccccc2n1C)c1ccc(OCC(F)(F)F)s1` (single isomer, unassigned) [Example 4A], the pIC50 was at least 7.00 at human Cav3.2 channels [1] (setting [5]) and below 5.00 at human Cav3.2 channels [1] (setting [6]). Further, the inhibition at 0.3 µM on human Cav3.2 channels [2] was found to be 58%. Also, the “CYP3A4 activity inhibition ratio” value on CYP3A4 came out at 39.6%.
On to `C[C@@H](NC(=O)C1CC1c1nc2cc(Cl)ccc2[nH]1)c1cnc(OCC(F)(F)F)s1` (single isomer, unassigned) [Example 64A], for which the pIC50 at human Cav3.2 channels [1] (setting [4]) is at least 7.00. Further, the inhibition at 0.3 µM on human Cav3.2 channels [2] turned out to be 52%. The “CYP3A4 activity inhibition ratio” value at CYP3A4 is listed as 4.4%.
For `C[C@@H](NC(=O)[C@H]1C[C@@H]1c1nc2ccccc2[nH]1)c1ccc(C(=O)N2CCC(F)(F)C2)s1` [Example 60, Trans-2-(1H-benzo[d]imidazol-2-yl)-N—((R)-1-(5-(3,3-difluoropyrrolidine-1-carbonyl)thiophen-2-yl)ethyl)cyclopropane-1-carboxamide], in that order: 6.00 to 7.00, 48% and −1.2%.
For `C[C@@H](NC(=O)C1CC1c1ccc2cnn(C)c2c1)c1ccc(OCC(F)(F)F)s1` (single isomer, unassigned) [Example 22A], in that order: 6.00 to 7.00, 81% and 12.2%.
The matching figures for `C[C@@H](NC(=O)[C@H]1C[C@@H]1c1nc2ccccc2[nH]1)c1cc2cc(F)ccc2[nH]1` [Example 63, (1S,2S)-2-(1H-benzo[d]imidazol-2-yl)-N—((R)-1-(5-fluoro-1H-indol-2-yl)ethyl)cyclopropane-1-carboxamide]: at least 7.00, 91% and 45.7%.
As for `C[C@@H](NC(=O)C1CC1c1nc2ccccc2[nH]1)c1ccc(C(=O)O)s1` (single isomer, unassigned) [Example 26], the pIC50 on human Cav3.2 channels [1] (setting [4]) is 6.00 to 7.00. Further, the inhibition at 0.3 µM on human Cav3.2 channels [2] stood at 19%. On CYP3A4, the “CYP3A4 activity inhibition ratio” value is given as 11.3%.
For `C[C@@H](NC(=O)C1CC1c1nc2ccccc2[nH]1)c1ccc(C(=O)N2CCCCC2)s1` (stereo in doubt) [Example 61, Trans-2-(1H-benzo[d]imidazol-2-yl)-N—((R)-1-(5-(piperidine-1-carbonyl)thiophen-2-yl)ethyl)cyclopropane-1-carboxamide], in that order: 6.00 to 7.00, 53% and 4.5%.

These data come from patent publication US11420944B2, “Voltage-dependent t-type calcium channel blocker” (Nippon Chemiphar Co., Ltd., priority 2016, dated 2022).
